A word on the IC50: it is the midpoint of a concentration-inhibition curve.

Results on 18 compounds are retold here after patent US20180250280A1 (BAYER PHARMA AKTIENGESELLSCHAFT, priority 2015, published 2018).

The target in one experiment is T1, human plasma kallikrein (Homo sapiens, UniProt P03952).
T1 construct: purchased Kordia
Nature of the experiment: Determination of the plasma kallikrein activity (fluorogenic peptide substrate, AMC cleavage). Particulars: plasma kallikrein from Kordia 0.6 nM; substrate H-Pro-Phe-Arg-AMC 10 μM; 30 min at 22° C.; in some cases averages from multiple determinations. The experiment is classed as biochemical. As to the method:
To determine the plasma kallikrein inhibition of the substances according to the invention, a biochemical test system is used which utilizes the reaction of a peptidic plasma kallikrein substrate to determine the enzymatic activity of human plasma kallikrein. Here, plasma kallikrein cleaves from the peptic plasma kallikrein substrate the C-terminal aminomethylcoumarin (AMC), the fluorescence of which is measured. The determinations are conducted in microtitre plates.
Test substances are dissolved in dimethyl sulfoxide and serially diluted in dimethyl sulfoxide (3000 μM to 0.0078 μM; resulting final concentrations in the test: 50 μM to 0.00013 μM). 1 μl of the diluted substance solutions is placed into each of the wells of white microtitre plates from Greiner (384 wells). 20 μl of assay buffer (50 mM Tris/HCl pH 7.4; 100 mM sodium chloride solution; 5 mM calcium chloride solution; 0.1% of bovine serum albumin) and 20 μl of plasma kallikrein from Kordia (0.6 nM in assay buffer) are then added successively. After 15 min of incubation, the enzyme reaction is started by addition of 20 μl of the substrate H-Pro-Phe-Arg-AMC dissolved in assay buffer (10 μM in assay buffer) from Bachem, the mixture is incubated at room temperature (22° C.) for 30 min and fluorescence is then measured (excitation: 360 nm, emission: 460 nm). The measured emissions of the test batches with test substance are compared to those of control batches without test substance (only dimethyl sulfoxide instead of test substance in dimethyl sulfoxide), and IC50 values are calculated from the concentration/activity relationships. Activity data from this test are given in Table B below (in some cases as averages from multiple individual determinations): […]

For another experiment, the target named is T2, human factor XIa (Homo sapiens, UniProt P03951).
T2 construct: purchased Kordia
Nature of the experiment: Measurement of FXIa inhibition (fluorogenic peptide substrate, AMC cleavage). The experiment is classed as biochemical. Particulars: factor XIa from Kordia 0.45 nM; substrate Boc-Glu(OBzl)-Ala-Arg-AMC 10 μM; 30 min at 22° C.; in some cases averages from multiple determinations. The procedure:
The factor XIa inhibition of the substances according to the invention is determined using a biochemical test system which utilizes the reaction of a peptidic factor XIa substrate to determine the enzymatic activity of human factor XIa. Here, factor XIa cleaves from the peptic factor XIa substrate the C-terminal aminomethylcoumarin (AMC), the fluorescence of which is measured. The determinations are conducted in microtitre plates.
Test substances are dissolved in dimethyl sulfoxide and serially diluted in dimethyl sulfoxide (3000 μM to 0.0078 μM; resulting final concentrations in the test: 50 μM to 0.00013 μM). 1 μl of the diluted substance solutions is placed into each of the wells of white microtitre plates from Greiner (384 wells). 20 μl of assay buffer (50 mM of Tris/HCl pH 7.4; 100 mM of sodium chloride; 5 mM of calcium chloride; 0.1% of bovine serum albumin) and 20 μl of factor XIa from Kordia (0.45 nM in assay buffer) are then added successively. After 15 min of incubation, the enzyme reaction is started by addition of 20 μl of the factor XIa substrate Boc-Glu(OBzl)-Ala-Arg-AMC dissolved in assay buffer (10 μM in assay buffer) from Bachem, the mixture is incubated at room temperature (22° C.) for 30 min and fluorescence is then measured (excitation: 360 nm, emission: 460 nm). The measured emissions of the test batches with test substance are compared to those of control batches without test substance (only dimethyl sulfoxide instead of test substance in dimethyl sulfoxide), and IC50 values are calculated from the concentration/activity relationships. Activity data from this test are given in Table A below (in some cases as averages from multiple individual determinations): […]

T2 sequence (P03951 388-625 limits assumed): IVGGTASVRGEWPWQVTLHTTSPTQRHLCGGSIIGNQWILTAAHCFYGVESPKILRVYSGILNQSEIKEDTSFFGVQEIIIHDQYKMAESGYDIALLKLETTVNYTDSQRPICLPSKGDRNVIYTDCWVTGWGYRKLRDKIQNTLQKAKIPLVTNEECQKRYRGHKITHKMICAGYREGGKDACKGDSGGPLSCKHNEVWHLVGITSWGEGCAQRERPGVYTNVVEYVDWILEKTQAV
T2 sequence (P03951 19-387 partner limits assumed): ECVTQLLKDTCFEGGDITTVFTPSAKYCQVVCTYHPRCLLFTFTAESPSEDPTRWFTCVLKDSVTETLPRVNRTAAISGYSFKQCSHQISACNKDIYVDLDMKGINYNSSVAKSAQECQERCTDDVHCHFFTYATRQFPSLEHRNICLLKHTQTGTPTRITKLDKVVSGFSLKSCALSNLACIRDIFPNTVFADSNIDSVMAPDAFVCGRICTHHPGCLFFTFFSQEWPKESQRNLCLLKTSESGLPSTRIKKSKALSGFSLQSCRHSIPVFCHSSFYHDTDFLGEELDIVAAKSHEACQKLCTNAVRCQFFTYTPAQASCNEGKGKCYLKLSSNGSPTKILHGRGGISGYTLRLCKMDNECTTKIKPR
T1 sequence (P03952 391-638 limits assumed): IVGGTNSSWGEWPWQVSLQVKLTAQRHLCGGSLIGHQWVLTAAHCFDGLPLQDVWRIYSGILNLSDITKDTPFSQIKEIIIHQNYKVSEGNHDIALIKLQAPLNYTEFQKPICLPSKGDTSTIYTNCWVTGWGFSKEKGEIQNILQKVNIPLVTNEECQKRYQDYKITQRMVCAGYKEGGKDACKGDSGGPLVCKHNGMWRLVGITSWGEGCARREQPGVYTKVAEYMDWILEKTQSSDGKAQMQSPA
T1 sequence (P03952 20-390 partner limits assumed): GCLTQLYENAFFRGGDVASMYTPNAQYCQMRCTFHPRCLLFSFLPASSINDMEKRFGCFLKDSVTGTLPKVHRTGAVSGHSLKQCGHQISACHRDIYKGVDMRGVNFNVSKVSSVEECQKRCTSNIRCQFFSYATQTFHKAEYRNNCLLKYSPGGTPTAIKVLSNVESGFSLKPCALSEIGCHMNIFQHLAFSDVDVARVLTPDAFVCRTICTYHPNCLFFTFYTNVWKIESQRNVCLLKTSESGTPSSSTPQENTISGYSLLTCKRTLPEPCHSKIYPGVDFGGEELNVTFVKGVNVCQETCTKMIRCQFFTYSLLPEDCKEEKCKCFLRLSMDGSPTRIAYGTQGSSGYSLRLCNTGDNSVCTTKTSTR

Turning to `CCCC(C(=O)Nc1ccc(C(=O)NC)nc1)n1cc(OC)c(-c2cc(Cl)ccc2OCC(F)(F)F)cc1=O` (racemic) [Example 66, 5-{[2-{4-[5-Chloro-2-(2,2,2-trifluoroethoxy)phenyl]-5-methoxy-2-oxopyridin-1(2H)-yl}pentanoyl]amino}-N-methylpyridine-2-carboxamide], the IC50 against human plasma kallikrein was 180 nM; at human factor XIa, 36 nM.

With `CCCC(C(=O)Nc1ccc(C(=O)O)cc1)n1cc(OC)c(-c2cc(Cl)ccc2OCC(F)(F)F)cc1=O` (racemic) [Example 67, 4-{[2-{4-[5-Chloro-2-(2,2,2-trifluoroethoxy)phenyl]-5-methoxy-2-oxopyridin-1(2H)-yl}pentanoyl]amino}benzoic acid], the IC50 is 140 nM at human plasma kallikrein and 2.8 nM against human factor XIa.

On to `CCCC(C(=O)Nc1ccc(C(N)=O)nc1)n1cc(OC)c(-c2cc(Cl)ccc2OCC(F)(F)F)cc1=O` (racemic) [Example 68, 5-{[2-{4-[5-Chloro-2-(2,2,2-trifluoroethoxy)phenyl]-5-methoxy-2-oxopyridin-1(2H)-yl}pentanoyl]amino}pyridine-2-carboxamide], for which the IC50 was determined as 250 nM against human plasma kallikrein and 37 nM against human factor XIa.

On to `COc1cn(C(CCOC(C)(C)C)C(=O)Nc2ccc3nc(C(=O)O)cn3c2)c(=O)cc1-c1cc(Cl)ccc1OCC(F)(F)F` (racemic) [Example 73, 6-{[4-tert-Butoxy-2-{4-[5-chloro-2-(2,2,2-trifluoroethoxy)phenyl]-5-methoxy-2-oxopyridin-1(2H)-yl}butanoyl]amino}imidazo[1,2-a]pyridine-2-carboxylic acid], for which the figures for the IC50 at human plasma kallikrein and at human factor XIa were 18 nM and 2 nM, respectively.

Consider `COc1cc(NC(=O)C(CCOC(C)(C)C)n2cc(OC)c(-c3cc(Cl)ccc3OCC(F)(F)F)cc2=O)ccc1C(=O)O` (racemic) [Example 74, 4-{[4-tert-Butoxy-2-{4-[5-chloro-2-(2,2,2-trifluoroethoxy)phenyl]-5-methoxy-2-oxopyridin-1(2H)-yl}butanoyl]amino}-2-methoxybenzoic acid], for which the IC50 against human plasma kallikrein stood at 210 nM; against human factor XIa, 6.9 nM.

In the case of `COc1cn(C(CCOC(C)(C)C)C(=O)Nc2ccc(C(=O)O)s2)c(=O)cc1-c1cc(Cl)ccc1OCC(F)(F)F` (racemic) [Example 75, 5-{[4-tert-Butoxy-2-{4-[5-chloro-2-(2,2,2-trifluoroethoxy)phenyl]-5-methoxy-2-oxopyridin-1(2H)-yl}butanoyl]amino}thiophene-2-carboxylic acid], the IC50 on human plasma kallikrein is 19 nM; on human factor XIa it was 2.5 nM.

For the compound `COCCC(C(=O)Nc1ccc(C(=O)O)cc1)n1cc(OC)c(-c2cc(Cl)ccc2OCC(F)(F)F)cc1=O` (single isomer, unassigned) [Example 2, 4-[(2-{4-[5-Chloro-2-(2,2,2-trifluoroethoxy)phenyl]-5-methoxy-2-oxopyridin-1(2H)-yl}-4-methoxybutanoyl)amino]benzoic acid], the IC50 against human plasma kallikrein was determined as 15 nM; on human factor XIa it was 0.28 nM.

As for `COc1cn(C(CCOC(C)(C)C)C(=O)Nc2ccc(C(=O)O)cc2)c(=O)cc1-c1cc(Cl)ccc1OCC(F)(F)F` (single isomer, unassigned) [Example 8, 4-[(4-tert-Butoxy-2-{4-[5-chloro-2-(2,2,2-trifluoroethoxy)phenyl]-5-methoxy-2-oxopyridin-1(2H)-yl}butanoyl)amino]benzoic acid], the values for the IC50 at human plasma kallikrein and at human factor XIa were 19 nM and 0.94 nM, respectively.

Consider `COc1cn(C(Cc2ccn(C)n2)C(=O)Nc2ccc(C(=O)O)cc2)c(=O)cc1-c1cc(Cl)ccc1OCC(F)(F)F` (single isomer, unassigned) [Example 43, 4-{[2-{4-[5-Chloro-2-(2,2,2-trifluoroethoxy)phenyl]-5-methoxy-2-oxopyridin-1(2H)-yl}-3-(1-methyl-1H-pyrazol-3-yl)propanoyl]amino}benzoic acid], for which the figures for the IC50 on human plasma kallikrein and against human factor XIa were 9.4 nM and 0.96 nM, respectively.

As to `COc1cn(C(C[C@@H]2CCCCO2)C(=O)Nc2ccc(C(=O)O)cc2)c(=O)cc1-c1cc(Cl)ccc1OCC(F)(F)F` (single isomer, unassigned) [Example 50], the results for the IC50 at human plasma kallikrein and on human factor XIa were 19 nM and 0.41 nM, respectively.

For `COc1cn(C(CC2COCCO2)C(=O)Nc2ccc(C(=O)O)cc2)c(=O)cc1-c1cc(Cl)ccc1OCC(F)(F)F` (single isomer, unassigned) [Example 62, 4-{[2-{4-[5-Chloro-2-(2,2,2-trifluoroethoxy)phenyl]-5-methoxy-2-oxopyridin-1(2H)-yl}-3-(1,4-dioxan-2-yl)propanoyl]amino}benzoic acid], the IC50 against human plasma kallikrein is 15 nM; against human factor XIa, 0.52 nM.

As to `CNC(=O)c1ccc(NC(=O)C(CC2COCCO2)n2cc(OC)c(-c3cc(Cl)ccc3OCC(F)(F)F)cc2=O)cn1` (single isomer, unassigned) [Example 63, 5-{[2-{4-[5-Chloro-2-(2,2,2-trifluoroethoxy)phenyl]-5-methoxy-2-oxopyridin-1(2H)-yl}-3-(1,4-dioxan-2-yl)propanoyl]amino}-N-methylpyridine-2-carboxamide], the IC50 on human plasma kallikrein came out at 14 nM; against human factor XIa, 1.3 nM.

Turning to `COc1cn([C@@H](CCOC(C)(C)C)C(=O)Nc2ccc(C(=O)O)s2)c(=O)cc1-c1cc(Cl)ccc1OCC(F)(F)F` (single isomer, unassigned) [Example 69, 5-{[4-tert-Butoxy-2-{4-[5-chloro-2-(2,2,2-trifluoroethoxy)phenyl]-5-methoxy-2-oxopyridin-1(2H)-yl}butanoyl]amino}thiophene-2-carboxylic acid], the IC50 on human plasma kallikrein was 8.9 nM; on human factor XIa, 0.88 nM.

For `COc1cc(NC(=O)[C@H](CCOC(C)(C)C)n2cc(OC)c(-c3cc(Cl)ccc3OCC(F)(F)F)cc2=O)ccc1C(=O)O` (single isomer, unassigned) [Example 70, 4-{[4-tert-Butoxy-2-{4-[5-chloro-2-(2,2,2-trifluoroethoxy)phenyl]-5-methoxy-2-oxopyridin-1(2H)-yl}butanoyl]amino}-2-methoxybenzoic acid], the IC50 against human plasma kallikrein worked out at 58 nM; on human factor XIa, 1.3 nM.

Consider `COc1cn([C@@H](CCOC(C)(C)C)C(=O)Nc2ccc3nc(C(=O)O)cn3c2)c(=O)cc1-c1cc(Cl)ccc1OCC(F)(F)F` (single isomer, unassigned) [Example 71, 6-{[4-tert-Butoxy-2-{4-[5-chloro-2-(2,2,2-trifluoroethoxy)phenyl]-5-methoxy-2-oxopyridin-1(2H)-yl}butanoyl]amino}imidazo[1,2-a]pyridine-2-carboxylic acid], for which the values for the IC50 against human plasma kallikrein and against human factor XIa were 10 nM and 0.93 nM, respectively.

`COc1cn([C@@H](C[C@@H]2CCCCO2)C(=O)Nc2ccc(C(=O)O)cc2)c(=O)cc1-c1cc(Cl)ccc1OCC(F)(F)F` (single isomer, unassigned) [Example 78]: the values for the IC50 against human plasma kallikrein and on human factor XIa were 19 nM and 0.41 nM, respectively.

For `COc1cn(C(CC2COCCO2)C(=O)Nc2ccc(C(=O)O)cc2)c(=O)cc1-c1cc(Cl)ccc1OCC(F)(F)F` (stereo not drawn) [Example 17, 4-{[2-{4-[5-Chloro-2-(2,2,2-trifluoroethoxy)phenyl]-5-methoxy-2-oxopyridin-1(2H)-yl}-3-(1,4-dioxan-2-yl)propanoyl]amino}benzoic acid], the figures for the IC50 against human plasma kallikrein and against human factor XIa were 47 nM and 0.82 nM, respectively.

As for `COc1cn(C(CC2COCCO2)C(=O)Nc2ccc(C(N)=O)nc2)c(=O)cc1-c1cc(Cl)ccc1OCC(F)(F)F` (stereo not drawn) [Example 18, 5-{[2-{4-[5-Chloro-2-(2,2,2-trifluoroethoxy)phenyl]-5-methoxy-2-oxopyridin-1(2H)-yl}-3-(1,4-dioxan-2-yl)propanoyl]amino}pyridine-2-carboxamide], the IC50 amounted to 55 nM on human plasma kallikrein and 3.2 nM against human factor XIa.
